From patent publication US10047051B2, “Substituted pyridines and method of use” (AbbVie S.á{acute over (.)}r.l., priority 2015, dated 2018)
pEC50: −log10 of the molar value.

Tests used:
CFTR ΔF508 mutant = molecular target: T1, CFTR ΔF508 mutant (Homo sapiens, UniProt P13569, DEL508-508); assay: YFP-halide influx assay for the CFTR-ΔF508 mutation (CFBE41o- cells); assay type: cell-based; conditions: forskolin 10.67 μM; for pEC50: from (1−F/F0) vs concentration plot
T1 construct: expressed in transfected cells; host or cells: CFBE41o- cells, adenoviral transduction
In short: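 EC50 derived from plotting 1−F/F0 (fluorescence 36 s after iodide injection over pre-injection value) against compound concentration. Cells: CFBE41o- transduced with ΔF508-CFTR and YFP quench reporter, corrected 24 h at 27° C or by a CFTR modulator at 37° C.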

CFTR G551D mutant = molecular target: T2, CFTR G551D mutant (Homo sapiens, UniProt P13569, G551D); assay: YFP-halide influx assay for the CFTR-G551D mutation (HEK293 cells); assay type: cell-based; conditions: forskolin 10.67 μM
T2 construct: expressed in transfected cells; host or cells: HEK293 cells, reverse transfection with plasmids
In short: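 Channel opening read as I⁻-driven quenching of a YFP H148Q/I152L/F47L reporter over 7 s post-injection, expressed as 1−F/F0 and fitted against concentration for EC50. Cells were HEK293 co-transfected at seeding with G551D CFTR plus reporter, then grown 24 h at 37 °C, 5% CO2.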

T1 sequence (P13569 with tags, fused parts or gaps DEL508-508): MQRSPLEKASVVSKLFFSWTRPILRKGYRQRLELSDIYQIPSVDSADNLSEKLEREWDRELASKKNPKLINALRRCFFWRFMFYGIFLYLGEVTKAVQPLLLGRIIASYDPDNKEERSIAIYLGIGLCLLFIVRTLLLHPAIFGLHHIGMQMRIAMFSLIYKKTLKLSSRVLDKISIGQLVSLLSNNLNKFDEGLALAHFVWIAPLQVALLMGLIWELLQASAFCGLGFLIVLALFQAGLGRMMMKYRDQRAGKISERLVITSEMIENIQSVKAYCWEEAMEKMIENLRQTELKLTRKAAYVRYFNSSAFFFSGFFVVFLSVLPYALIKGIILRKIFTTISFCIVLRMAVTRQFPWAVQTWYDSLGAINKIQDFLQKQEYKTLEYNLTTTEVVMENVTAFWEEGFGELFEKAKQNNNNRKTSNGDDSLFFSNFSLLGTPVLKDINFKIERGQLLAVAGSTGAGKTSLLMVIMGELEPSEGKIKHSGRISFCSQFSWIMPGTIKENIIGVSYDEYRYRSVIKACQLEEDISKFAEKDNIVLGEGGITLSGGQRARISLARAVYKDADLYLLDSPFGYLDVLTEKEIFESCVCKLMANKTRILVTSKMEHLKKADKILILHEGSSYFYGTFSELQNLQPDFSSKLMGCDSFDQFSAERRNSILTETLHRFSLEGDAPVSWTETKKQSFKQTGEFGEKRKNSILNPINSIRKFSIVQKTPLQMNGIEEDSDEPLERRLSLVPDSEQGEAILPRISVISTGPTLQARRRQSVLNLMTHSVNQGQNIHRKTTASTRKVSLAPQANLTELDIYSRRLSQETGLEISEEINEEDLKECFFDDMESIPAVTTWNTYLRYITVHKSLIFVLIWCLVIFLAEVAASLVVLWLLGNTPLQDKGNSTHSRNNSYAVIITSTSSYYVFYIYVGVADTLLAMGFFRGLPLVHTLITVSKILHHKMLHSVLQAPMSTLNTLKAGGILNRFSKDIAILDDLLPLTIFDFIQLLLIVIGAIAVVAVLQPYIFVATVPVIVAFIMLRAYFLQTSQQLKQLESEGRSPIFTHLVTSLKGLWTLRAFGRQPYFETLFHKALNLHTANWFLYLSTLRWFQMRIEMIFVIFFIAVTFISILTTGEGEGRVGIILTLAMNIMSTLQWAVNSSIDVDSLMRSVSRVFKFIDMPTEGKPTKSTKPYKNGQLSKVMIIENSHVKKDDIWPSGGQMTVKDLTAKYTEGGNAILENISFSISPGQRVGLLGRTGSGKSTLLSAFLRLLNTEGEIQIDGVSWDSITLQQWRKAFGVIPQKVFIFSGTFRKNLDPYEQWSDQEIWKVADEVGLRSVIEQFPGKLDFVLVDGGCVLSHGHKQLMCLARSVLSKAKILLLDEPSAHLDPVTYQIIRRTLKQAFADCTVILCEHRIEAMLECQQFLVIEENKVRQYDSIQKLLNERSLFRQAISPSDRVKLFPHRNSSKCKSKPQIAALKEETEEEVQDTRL
T2 sequence (P13569 whole entry G551D): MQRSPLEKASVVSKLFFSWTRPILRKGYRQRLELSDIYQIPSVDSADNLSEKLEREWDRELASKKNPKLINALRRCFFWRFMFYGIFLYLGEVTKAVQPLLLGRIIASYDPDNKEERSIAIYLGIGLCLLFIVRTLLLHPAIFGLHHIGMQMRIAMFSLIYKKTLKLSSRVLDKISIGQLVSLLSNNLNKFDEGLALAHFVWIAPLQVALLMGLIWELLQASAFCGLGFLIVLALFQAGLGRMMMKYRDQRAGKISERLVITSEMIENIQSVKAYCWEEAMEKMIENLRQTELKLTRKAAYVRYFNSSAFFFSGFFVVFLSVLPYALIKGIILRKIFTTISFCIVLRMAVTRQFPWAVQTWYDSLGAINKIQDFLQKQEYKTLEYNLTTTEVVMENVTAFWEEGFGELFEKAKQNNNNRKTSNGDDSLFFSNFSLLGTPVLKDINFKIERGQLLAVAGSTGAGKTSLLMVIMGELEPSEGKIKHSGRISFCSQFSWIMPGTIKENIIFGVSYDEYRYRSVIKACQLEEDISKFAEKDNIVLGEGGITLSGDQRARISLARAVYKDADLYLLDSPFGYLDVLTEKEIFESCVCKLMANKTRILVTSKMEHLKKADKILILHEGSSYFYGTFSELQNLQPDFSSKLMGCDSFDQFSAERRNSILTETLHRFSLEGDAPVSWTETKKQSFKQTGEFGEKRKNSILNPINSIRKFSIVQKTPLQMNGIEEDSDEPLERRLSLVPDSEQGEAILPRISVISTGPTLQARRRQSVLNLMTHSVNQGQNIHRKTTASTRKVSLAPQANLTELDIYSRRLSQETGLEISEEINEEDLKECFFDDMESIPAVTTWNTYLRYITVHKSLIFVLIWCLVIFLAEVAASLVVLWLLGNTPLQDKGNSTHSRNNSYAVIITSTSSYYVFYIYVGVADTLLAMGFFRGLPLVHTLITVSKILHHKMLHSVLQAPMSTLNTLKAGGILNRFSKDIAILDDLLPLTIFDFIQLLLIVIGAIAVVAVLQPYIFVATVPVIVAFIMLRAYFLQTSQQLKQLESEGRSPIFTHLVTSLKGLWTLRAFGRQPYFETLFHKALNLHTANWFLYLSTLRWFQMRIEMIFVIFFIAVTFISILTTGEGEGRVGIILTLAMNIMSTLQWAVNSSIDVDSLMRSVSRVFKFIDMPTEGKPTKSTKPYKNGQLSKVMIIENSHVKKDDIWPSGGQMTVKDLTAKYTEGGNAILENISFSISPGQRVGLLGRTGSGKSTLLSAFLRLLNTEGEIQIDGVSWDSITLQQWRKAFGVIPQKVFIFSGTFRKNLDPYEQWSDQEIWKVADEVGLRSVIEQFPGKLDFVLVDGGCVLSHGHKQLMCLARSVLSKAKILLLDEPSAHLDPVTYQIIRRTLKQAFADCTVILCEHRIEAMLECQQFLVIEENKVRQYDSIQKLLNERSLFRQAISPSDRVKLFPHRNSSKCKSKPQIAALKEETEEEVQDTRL

Row | Structure (SMILES) | % Activation (CFTR ΔF508 mutant) | pEC50 (CFTR ΔF508 mutant) | % Activation (CFTR G551D mutant) | pEC50 (CFTR G551D mutant)
1 | CC(C)(O)C1CN(C(=O)c2ncc(S(=O)(=O)c3ccc(OC(F)(F)F)cc3F)cc2N)C1 [Compound 174, (3-amino-5-{[2-fluoro-4-(trifluoromethoxy)phenyl]sulfonyl}pyridin-2-yl)[3-(2-hydroxypropan-2-yl)azetidin-1-yl]methanone] | 118.3% | 8.23 | 50.3% | 6.43
2 | CC(C)C1(O)CN(C(=O)c2ncc(S(=O)(=O)c3ccc(OC(F)(F)F)cc3F)cc2N)C1 [Compound 175, (3-amino-5-{[2-fluoro-4-(trifluoromethoxy)phenyl]sulfonyl}pyridin-2-yl)[3-hydroxy-3-(propan-2-yl)azetidin-1-yl]methanone] | 103.0% | 8.20 | 44.0% | < 5.48
3 | CC(C)(O)C1CN(C(=O)c2ncc(S(=O)(=O)c3ccc(C(F)(F)F)cc3F)cc2N)C1 [Compound 178, (3-amino-5-{[2-fluoro-4-(trifluoromethyl)phenyl]sulfonyl}pyridin-2-yl)[3-(2-hydroxypropan-2-yl)azetidin-1-yl]methanone] | 109.7% | 8.25 | 75.8% | 6.49
4 | C[C@@H]1CCCN1S(=O)(=O)c1cnc(C(=O)NCC(O)C(F)(F)F)c(N)c1 (stereo partly drawn) [Compound 179, 3-amino-5-{[(2R)-2-methylpyrrolidin-1-yl]sulfonyl}-N-(3,3,3-trifluoro-2-hydroxypropyl)pyridine-2-carboxamide] | 100.4% | 7.56 | 52.6% | 5.87
5 | Nc1cc(S(=O)(=O)N2CC[C@H](F)C2)cnc1C(=O)NCC(O)C(F)(F)F (stereo partly drawn) [Compound 180, 3-amino-5-{[(3S)-3-fluoropyrrolidin-1-yl]sulfonyl}-N-(3,3,3-trifluoro-2-hydroxypropyl)pyridine-2-carboxamide] | 97.0% | 6.97 | 30.2% | < 5.00
6 | C[C@H]1CCCN1S(=O)(=O)c1cnc(C(=O)NCC(O)C(F)(F)F)c(N)c1 (stereo partly drawn) [Compound 181, 3-amino-5-{[(2S)-2-methylpyrrolidin-1-yl]sulfonyl}-N-(3,3,3-trifluoro-2-hydroxypropyl)pyridine-2-carboxamide] | 90.6% | 7.70 | 61.4% | 5.88
7 | CC1CCCN(S(=O)(=O)c2cnc(C(=O)NCC(O)C(F)(F)F)c(N)c2)C1 (stereo not shown) [Compound 182, 3-amino-5-[(3-methylpiperidin-1-yl)sulfonyl]-N-(3,3,3-trifluoro-2-hydroxypropyl)pyridine-2-carboxamide] | 112.7% | 8.33 | 51.3% | 6.19
8 | Nc1cc(S(=O)(=O)N2CCCC(F)(F)C2)cnc1C(=O)NCC(O)C(F)(F)F (stereo not shown) [Compound 183, 3-amino-5-[(3,3-difluoropiperidin-1-yl)sulfonyl]-N-(3,3,3-trifluoro-2-hydroxypropyl)pyridine-2-carboxamide] | 103.7% | 7.68 | 42.0% | 5.95
9 | CC1CCN(S(=O)(=O)c2cnc(C(=O)NCC(O)C(F)(F)F)c(N)c2)CC1 (stereo not shown) [Compound 184, 3-amino-5-[(4-methylpiperidin-1-yl)sulfonyl]-N-(3,3,3-trifluoro-2-hydroxypropyl)pyridine-2-carboxamide] | 111.0% | 8.16 | 66.4% | 6.41
10 | CC1CC(C)CN(S(=O)(=O)c2cnc(C(=O)NCC(O)C(F)(F)F)c(N)c2)C1 (stereo not shown) [Compound 185, 3-amino-5-[(3,5-dimethylpiperidin-1-yl)sulfonyl]-N-(3,3,3-trifluoro-2-hydroxypropyl)pyridine-2-carboxamide] | 111.3% | 8.54 | 69.4% | 5.95
11 | Nc1cc(S(=O)(=O)N2CCC(F)(F)C2)cnc1C(=O)NCC(O)C(F)(F)F (stereo not shown) [Compound 186, 3-amino-5-[(3,3-difluoropyrrolidin-1-yl)sulfonyl]-N-(3,3,3-trifluoro-2-hydroxypropyl)pyridine-2-carboxamide] | 108.2% | 7.52 | 49.9% | < 5.48
12 | CN(Cc1ccc(F)cc1)S(=O)(=O)c1cnc(C(=O)NCC(O)C(F)(F)F)c(N)c1 (stereo not shown) [Compound 187, 3-amino-5-[(4-fluorobenzyl)(methyl)sulfamoyl]-N-(3,3,3-trifluoro-2-hydroxypropyl)pyridine-2-carboxamide] | 99.1% | 8.55 | 71.8% | 6.15
13 | CC(C)C(C)NC(=O)c1ncc(S(=O)(=O)c2ccc(C(F)(F)F)cc2)cc1N (stereo not shown) [Compound 188, 3-amino-N-(3-methylbutan-2-yl)-5-{[4-(trifluoromethyl)phenyl]sulfonyl}pyridine-2-carboxamide] | 88.8% | 6.42 | 13.4% | < 5.00
14 | CC(C)CNC(=O)c1ncc(S(=O)(=O)c2ccc(C(F)(F)F)cc2)cc1N [Compound 189, 3-amino-N-(2-methylpropyl)-5-{[4-(trifluoromethyl)phenyl]sulfonyl}pyridine-2-carboxamide] | 99.9% | 6.95 | 30.7% | < 5.00
15 | Nc1cc(S(=O)(=O)c2ccc(C(F)(F)F)cc2)cnc1C(=O)NCCOCC1CCCO1 (stereo not shown) [Compound 190, 3-amino-N-[2-(tetrahydrofuran-2-ylmethoxy)ethyl]-5-{[4-(trifluoromethyl)phenyl]sulfonyl}pyridine-2-carboxamide] | 96.6% | 6.87 | 67.4% | 5.73
16 | CC(C)(C)CNC(=O)c1ncc(S(=O)(=O)c2ccc(C(F)(F)F)cc2)cc1N [Compound 191, 3-amino-N-(2,2-dimethylpropyl)-5-{[4-(trifluoromethyl)phenyl]sulfonyl}pyridine-2-carboxamide] | 99.7% | 6.80 | 11.7% | < 5.00
17 | CC(C)OCCNC(=O)c1ncc(S(=O)(=O)c2ccc(C(F)(F)F)cc2)cc1N [Compound 192, 3-amino-N-[2-(propan-2-yloxy)ethyl]-5-{[4-(trifluoromethyl)phenyl]sulfonyl}pyridine-2-carboxamide] | 101.5% | 7.41 | 58.4% | 6.06

Next, values leading:

Row | % Activation (CFTR ΔF508 mutant) | pEC50 (CFTR ΔF508 mutant) | % Activation (CFTR G551D mutant) | pEC50 (CFTR G551D mutant) | Structure (SMILES)
18 | 95.7% | 7.49 | 62.3% | 5.75 | Nc1cc(S(=O)(=O)N2CCCC(F)C2)cnc1C(=O)NCC(O)C(F)(F)F (stereo not shown) [Compound 194, 3-amino-5-[(3-fluoropiperidin-1-yl)sulfonyl]-N-(3,3,3-trifluoro-2-hydroxypropyl)pyridine-2-carboxamide]
19 | 98.7% | 7.58 | 61.8% | 5.90 | Nc1cc(S(=O)(=O)N2CCC(F)CC2)cnc1C(=O)NCC(O)C(F)(F)F (stereo not shown) [Compound 195, 3-amino-5-[(4-fluoropiperidin-1-yl)sulfonyl]-N-(3,3,3-trifluoro-2-hydroxypropyl)pyridine-2-carboxamide]
20 | 105.4% | 7.59 | 65.4% | 5.74 | COC1CCN(S(=O)(=O)c2cnc(C(=O)NCC(O)C(F)(F)F)c(N)c2)CC1 (stereo not shown) [Compound 196, 3-amino-5-[(4-methoxypiperidin-1-yl)sulfonyl]-N-(3,3,3-trifluoro-2-hydroxypropyl)pyridine-2-carboxamide]
21 | 106.7% | 8.41 | 76.4% | 6.47 | CC(C)(C)C1CCN(S(=O)(=O)c2cnc(C(=O)NCC(O)C(F)(F)F)c(N)c2)CC1 (stereo not shown) [Compound 197, 3-amino-5-[(4-tert-butylpiperidin-1-yl)sulfonyl]-N-(3,3,3-trifluoro-2-hydroxypropyl)pyridine-2-carboxamide]
22 | 107.0% | 8.11 | 75.2% | 6.12 | Nc1cc(S(=O)(=O)N2CCC(OC(F)(F)F)CC2)cnc1C(=O)NCC(O)C(F)(F)F (stereo not shown) [Compound 198, 3-amino-N-(3,3,3-trifluoro-2-hydroxypropyl)-5-{[4-(trifluoromethoxy)piperidin-1-yl]sulfonyl}pyridine-2-carboxamide]
23 | 114.1% | 7.67 | 65.0% | 5.84 | CC1(C)CN(S(=O)(=O)c2cnc(C(=O)NCC(O)C(F)(F)F)c(N)c2)C1 (stereo not shown) [Compound 199, 3-amino-5-[(3,3-dimethylazetidin-1-yl)sulfonyl]-N-(3,3,3-trifluoro-2-hydroxypropyl)pyridine-2-carboxamide]
24 | 116.7% | 7.37 | 59.5% | 5.63 | Nc1cc(S(=O)(=O)NC[C@H]2CCOC2)cnc1C(=O)NCC(O)C(F)(F)F (stereo partly drawn) [Compound 200, 3-amino-5-{[(3R)-tetrahydrofuran-3-ylmethyl]sulfamoyl}-N-(3,3,3-trifluoro-2-hydroxypropyl)pyridine-2-carboxamide]
25 | 104.0% | 7.83 | 59.8% | 6.28 | Nc1cc(S(=O)(=O)c2ccc(C(F)(F)F)cc2)cnc1C(=O)NCC(O)COCC(F)(F)F (stereo not shown) [Compound 201, 3-amino-N-[2-hydroxy-3-(2,2,2-trifluoroethoxy)propyl]-5-{[4-(trifluoromethyl)phenyl]sulfonyl}pyridine-2-carboxamide]
